Columns and labels:
Assay type in all cases: in vivo
Matricaria inodora = assay: Post-emergence herbicidal action against Matricaria inodora; details: for Herbicidal action against Matricaria inodora: 28 DAT; for Herbicidal action in [%] 14 DAT against Matricaria inodora: post-emergence
Phalaris minor = assay: Post-emergence herbicidal action against Phalaris minor
Pharbitis purpurea = assay: Post-emergence herbicidal action against Pharbitis purpurea; details: for Herbicidal action 21 DAT [%] against Pharbitis purpurea: post-emergence
Summary of the method: (§1)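 Pot-grown plants, three weeks old at the three-leaf stage, received foliar sprays of various dosages. Visual assessment relative to untreated plants followed 3 to 4 weeks later.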

Viola arvensis = assay: Post-emergence herbicidal action against Viola arvensis; details: 100 g of a.i./ha
Method: (§2) When the observed efficacies exceed the formal sum total of the values of the tests with individual applications, they also exceed the expected value according to Colby, which is calculated using the formula below and is likewise regarded as an indication of synergism (cf. S. R. Colby; in Weeds 15 (1967) p. 20 to 22): E^C=A+B−([…])
(§3) Here: • A=efficacy of the active compound (A) in % at an application rate of a g a.i./ha; • B=efficacy of the active compound (B) in % at an application rate of b g a.i./ha; • E^C=expected value of the effect of the combination (A)+(B) in % at the combined application rate a+b g a.i./ha.
(§4) Seeds or rhizome pieces of mono- and dicotyledonous weeds are placed in sandy loam in pots, covered with soil and grown in a greenhouse under good growth conditions (temperature, air humidity, water supply). Three weeks after sowing, the test plants were treated at the three-leaf stage with the compositions according to the invention. The compositions according to the invention formulated as spray powders or as emulsion concentrates were sprayed onto the green plant parts in various dosages with an application rate of 300 to 800 l/ha of water (equivalent). […] The compositions according to the invention also have good post-emergence herbicidal activity against a broad spectrum of economically important gramineous and broadleaf weeds.

Brachiaria platyphylla = assay: Post-emergence herbicidal action against Brachiaria platyphylla
Summary of the method: as §1

Sorghum halepense = assay: Post-emergence herbicidal action against Sorghum halepense; details: 1.7 g of a.i./ha
Summary of the method: as §1

Viola tricolor [1] = assay: Post-emergence herbicidal action against Viola tricolor
Alopecurus myosuroides = assay: Post-emergence herbicidal action against Alopecurus myosuroides
Lolium rigidum = assay: Post-emergence herbicidal action against Lolium rigidum
Panicum maximum = assay: Post-emergence herbicidal action against Panicum maximum
Method: as §2, §3
Seeds or rhizome pieces of mono- and dicotyledonous weeds are placed in sandy loam in pots, covered with soil and grown in a greenhouse under good growth conditions (temperature, air humidity, water supply). Three weeks after sowing, the test plants were treated at the three-leaf stage with the compositions according to the invention. The compositions according to the invention formulated as spray powders or as emulsion concentrates were sprayed onto the green plant parts in various dosages with an application rate of 300 to 800 l/ha of water (equivalent). After the test plants have been left to stand in the greenhouse under optimal growth conditions for about 3 to 4 weeks, the action of the preparations is scored visually in comparison to untreated controls. The compositions according to the invention also have good post-emergence herbicidal activity against a broad spectrum of economically important gramineous and broadleaf weeds.

Viola tricolor [2] = assay: Post-emergence herbicidal action against Viola tricolor; remark: listed apart in the source
Summary of the method: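 Assessment time was recorded as days after application. Activity for mixtures was set against E^C, the Colby expected value, and against E^A, the total of the effects from each component applied alone; application rates were in g of active substance per hectare.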

Ranunculus repens = assay: Post-emergence herbicidal action against Ranunculus repens; details: 100 g of a.i./ha
Method: as §2, §3, §4

SMILES: C=C[C@]1(C(=O)N[C@H]2CO[C@@H](C(=O)OC)C2)CC(c2cc(F)cc(F)c2)=NO1 (relative stereo) [Compound A3, methyl rel-(2R,4R)-4-[[(5S)-3-(3,5-difluorophenyl)-5-vinyl-4H-isoxazole-5-carbonyl]amino]tetrahydrofuran-2-carboxylate]
- Herbicidal action against Matricaria inodora (Matricaria inodora; 1 g of a.i./ha): 15%
- Herbicidal action against Matricaria inodora (Matricaria inodora; 16 g of a.i./ha): 15%
- Herbicidal action 14 DAT against Matricaria inodora (Matricaria inodora; (Z61) post-emergence, g of a.i./ha: 1, 270, 30, 1 + 270, 1 + 30): 0%
- Herbicidal action in [%] 14 DAT against Matricaria inodora (Matricaria inodora; 4 g of a.i./ha): 30%
- Herbicidal action in [%] 14 DAT against Matricaria inodora (Matricaria inodora; 16 g of a.i./ha): 40%
- Herbicidal action (Phalaris minor; 14 DAT, 1 g a.i./ha): 20%
- Herbicidal action (Phalaris minor; 14 DAT, 4 g a.i./ha): 85%
- Herbicidal action (Phalaris minor; 14 DAT, 16 g a.i./ha): 85%
- Herbicidal action (Phalaris minor; 28 DAT, 1 g a.i./ha): 10%
- Herbicidal action (Phalaris minor; 28 DAT, 4 g a.i./ha): 85%
- Herbicidal action (Phalaris minor; 28 DAT, 16 g a.i./ha): 85%
- Herbicidal action 21 DAT against Pharbitis purpurea (Pharbitis purpurea; 5 g of a.i./ha): 80%
- Herbicidal action 21 DAT [%] against Pharbitis purpurea (Pharbitis purpurea; 5 g of a.i./ha): 80%
- Herbicidal action 21 DAT [%] against Pharbitis purpurea (Pharbitis purpurea; 21 DAT, 5 g of a.i./ha): 85%
- Herbicidal action 21 DAT [%] against Pharbitis purpurea (Pharbitis purpurea; 21 DAT, 15 g of a.i./ha): 85%
- Herbicidal action 43 DAT [%] against Viola arvensis (Viola arvensis): 50%
- Herbicidal action 21 DAT [%] against Brachiaria platyphylla (Brachiaria platyphylla; 1.7 g of a.i./ha): 20%
- Herbicidal action 21 DAT against Brachiaria platyphylla (Brachiaria platyphylla; 1.7 g of a.i./ha): 20%
- Herbicidal action 21 DAT [%] against Brachiaria platyphylla (Brachiaria platyphylla; 1.7 g of a.i./ha, post-emergence, block with (B1.14) Tembotrione): 20%
- Herbicidal action 21 DAT [%] against Brachiaria platyphylla (Brachiaria platyphylla; 1.7 g of a.i./ha, post-emergence, block with (B9.10) Saflufenacil): 20%
- Herbicidal action 21 DAT [%] against Brachiaria platyphylla (Brachiaria platyphylla; 5 g of a.i./ha): 80%
- Herbicidal action 21 DAT [%] against Sorghum halepense (Sorghum halepense): 40%
- Herbicidal action 21 DAT against Sorghum halepense (Sorghum halepense): 40%
- Herbicidal action 21 DAT [%] against Sorghum halepense (Sorghum halepense; post-emergence): 40%
- Herbicidal action in [%] 14 DAT against Viola tricolor (Viola tricolor [1]; 1 g of a.i./ha): 50%
- Herbicidal action in [%] 28 DAT against Viola tricolor (Viola tricolor [1]; 1 g of a.i./ha): 15%
- Herbicidal action in [%] 28 DAT against Viola tricolor (Viola tricolor [1]; 4 g of a.i./ha): 30%
- Herbicidal action (Alopecurus myosuroides; 14 DAT, 1 g a.i./ha): 30%
- Herbicidal action (Alopecurus myosuroides; 14 DAT, 4 g a.i./ha): 75%
- Herbicidal action (Alopecurus myosuroides; 28 DAT, 1 g a.i./ha): 10%
- Herbicidal action (Alopecurus myosuroides; 28 DAT, 4 g a.i./ha): 60%
- Herbicidal action (Lolium rigidum; 14 DAT, 1 g a.i./ha): 40%
- Herbicidal action (Lolium rigidum; 28 DAT, 1 g a.i./ha): 10%
- Herbicidal action (Lolium rigidum; 28 DAT, 4 g a.i./ha): 70%
- Herbicidal action 28 DAT [%] against Panicum maximum (Panicum maximum; 100 g of a.i./ha): 82%
- Herbicidal action 28 DAT against Panicum maximum (Panicum maximum; g of a.i./ha: 200, 100, 100 + 200): 82%
- Herbicidal action 14 DAT against Viola tricolor (Viola tricolor [2]; 1 g of a.i./ha): 50%
- Herbicidal action 28 DAT against Viola tricolor (Viola tricolor [2]; 1 g of a.i./ha): 15%
- Herbicidal action 28 DAT against Viola tricolor (Viola tricolor [2]; 4 g of a.i./ha): 30%
- Herbicidal action 14 DAT against Viola tricolor (Viola tricolor [2]; 16 g of a.i./ha): 85%
- Herbicidal action 28 DAT against Viola tricolor (Viola tricolor [2]; 16 g of a.i./ha): 20%
- Herbicidal action 28 DAT against Viola tricolor (Viola tricolor [2]; (Z61) post-emergence, g of a.i./ha: 16, 1, 30, 16 + 30, 1 + 30, 1 g of a.i./ha): 15%
- Herbicidal action 28 DAT against Viola tricolor (Viola tricolor [2]; (Z61) post-emergence, g of a.i./ha: 16, 1, 30, 16 + 30, 1 + 30, 16 g of a.i./ha): 20%
- Herbicidal action 43 DAT [%] against Ranunculus repens (Ranunculus repens): 82%

Source: patent publication US12171230B2, “Herbicidal compositions” (Bayer Aktiengesellschaft, priority 2018, dated 2024)
